Test [1] deals with Calu-6 cell line. In words: Cell associated (bound) fraction of [177Lu]Lu-labeled peptide in Calu-6 cells. Format: cell-based, Human. Conditions: 1 hour, 37° C. How it is done: (§1) [^177Lu]LuCl3 was received from venders in HCl solution. For every mCi of [^177Lu]LuCl3 added to the reaction vial (1.5 mL Eppendorf vial), ammonium acetate buffer (0.2 M, pH 4.9, 100 μL, containing 1% w/v ascorbic acid and 6% v/v ethanol) and peptide conjugate (1 nmol) was added. The pH of the solution was determined to be approximately 5 by using pH strips. The reaction vial was incubated at 80° C., 700 RPM for 17-20 minutes. A sample from the reaction was analyzed by RP-HPLC using an Agilent Infinity II 1260 HPLC to determine reaction completion and radiochemical purity. HPLC conditions: Waters XBridge BEH C18 Column, 130 Å, 3.5 μm, 4.6 mm×250 mm; mobile phase: Solvent A=water (with 0.1% formic acid), solvent B=acetonitrile (with 0.1% formic acid). Gradients: 25-45% B in 10 minutes, 45-65% B in 12 minutes, 65-90% in 6 minutes at a flow rate of 0.5 mL/minute. Required amounts of the product were formulated in 1% PBSA for cell studies.
(§2) The study was conducted using Calu-6 cell line (Table 8)
(§3) Adherent cell studies: The cells were cultured in appropriate culture media (20 mL) in tissue culture treated T150 flasks at 37° C. and 5% CO2. Adherent cells were detached (60-70% confluent) using 5 mL Versene at 37° C. for 3 minutes. After confirming the viability using countess and count of detached cells using Trypan blue, the cells were centrifuged at 4° C. for 5 minutes (1,000 revolutions per minute). The cell pellet obtained was washed once with PBS and resuspended in 1% PBSA to obtain the desired cell concentration (5 million cells/mL).
Cell associated fraction: Cells were incubated with 300 μL (0.8 μCi) of the incubation buffer (containing radiolabeled peptide [^177Lu]Lu-test peptide) for 1 hour at 37 C (Table 9). Post incubation, the cells were pelleted and washed 2 times using cold PBS+1% BSA. The supernatant and washes were combined and counted together as “unbound fraction” in a gamma counter. The cells were then resuspended in 300 μL of 1% PBS+1% BSA and counted in the gamma counter as cell associated fraction (or bound fraction).
(§4) Calu-6 Cells are Human-Derived, Non-Engineered Lung Cancer Cell that Express B7-H3.

The subject of test [2] is Calu-6 cell line. In words: Net internalization of [177Lu]Lu-labeled peptide in Calu-6 cells. Type of test: cell-based, Human. To be noted: 1 hour, 37° C., glycine pH 2.5 acid wash. Here is the method:
as §1, §2, §3
Net internalization: The resuspended cells in 300 μl of 1% PBSA and counted in the gamma counter as “bound fraction” were collected in 1.5 mL Eppendorf tube and pelleted. The pelleted cells were incubated with 300 μl of 50 mM Glycine pH=2.5 for 3 minutes and then pelleted discarding the supernatant. This process was repeated one more time. The pelleted cells were washed with 300 μl of cold 1% PBSA and then resuspended in 300 μl 0.3 M NaOH. This was counted in the gamma counter as “internalized fraction”.
as §4

For the next test, the target named is T1, human 4lg B7-H3 (Homo sapiens, UniProt Q5ZPR3).
T1 sequence (Q5ZPR3 29-534): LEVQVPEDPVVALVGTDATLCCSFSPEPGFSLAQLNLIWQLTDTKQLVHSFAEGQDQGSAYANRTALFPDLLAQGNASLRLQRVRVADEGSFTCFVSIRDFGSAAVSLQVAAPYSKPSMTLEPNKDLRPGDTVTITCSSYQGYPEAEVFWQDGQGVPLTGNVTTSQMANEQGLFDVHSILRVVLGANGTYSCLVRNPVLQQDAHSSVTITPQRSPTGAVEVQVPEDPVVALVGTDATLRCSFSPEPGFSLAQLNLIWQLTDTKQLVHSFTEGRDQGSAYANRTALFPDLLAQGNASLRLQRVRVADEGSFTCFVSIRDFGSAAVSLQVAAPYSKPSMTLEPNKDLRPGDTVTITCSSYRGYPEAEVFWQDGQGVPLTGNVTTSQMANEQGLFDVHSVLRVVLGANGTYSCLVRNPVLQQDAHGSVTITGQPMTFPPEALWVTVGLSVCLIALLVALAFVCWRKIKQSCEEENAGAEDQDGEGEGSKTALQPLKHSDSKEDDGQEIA
Description: Affinity determination by surface plasmon resonance (SPR) to 4Ig B7-H3. To be noted: 4Ig B7-H3.

Setting [3] is: SPR KD—25° C., 25° C. flow cell temperature.
The mark [4] stands for this setting: read-out: SPR KD—25° C., 25° C. flow cell temperature.

As usually defined, the Kd is the free concentration of one partner at which half of the binding sites on the other are occupied at equilibrium, for simple one-to-one binding.

Like-named read-outs stand apart in the source and are kept apart here. Starred links: 1 amine or outer side, 2 acyl side, 3 side chain; linkers in the order of their positions; H or OH if unused. Positions of bridges follow the written chain, without caps; N, C: chain ends. Non-standard residues stand in square brackets, D forms with d. Residues, ends and D or L forms follow the SMILES beside them. Groups on a side chain read outwards from the residue. *: point of attachment. Ala(piperidin-4-yl) = O=C([C@H](CC1CCN([*:3])CC1)N[*:1])[*:2]; DOTA = O=C(O)CN1CCN(CC(=O)O)CCN(CC(=O)*)CCN(CC(=O)O)CC1; Phe(4-COOH) = N[C@@H](Cc1ccc(C(=O)O)cc1)C(=O)O; Trp(5-F) = N[C@@H](Cc1c[nH]c2ccc(F)cc12)C(=O)O; PEG8 = NCCOCCOCCOCCOCCOCCOCCOCCOCCC(=O)O; γGlu = O=C(O)[C@H](CCC(=O)[*:2])N[*:1]; 1Nal = N[C@@H](Cc1cccc2ccccc12)C(=O)O; Ala(4-THP) = N[C@@H](CC1CCOCC1)C(=O)O; Val(3-OH) = CC(C)(O)[C@H](N)C(=O)O; 4Pal = N[C@@H](Cc1ccncc1)C(=O)O; Tle = CC(C)(C)[C@H](N)C(=O)O; hLeu = CC(C)CC[C@H](N)C(=O)O

With `CC(C)CC[C@H](NC(=O)CCOCCOCCOCCOCCOCCOCCOCCOCCNC(=O)CN1CCN(CC(=O)O)CCN(CC(=O)O)CCN(CC(=O)O)CC1)C(=O)N[C@@H](Cc1ccc(O)cc1)C(=O)N[C@H]1CSSC[C@@H](C(=O)N[C@@H](Cc2c[nH]c3ccc(F)cc23)C(=O)N[C@@H](Cc2ccccc2)C(=O)N2CCC[C@H]2C(N)=O)NC(=O)[C@H](Cc2ccc(O)cc2)NC(=O)[C@H](C(C)C)NC(=O)[C@H](CC(=O)O)NC(=O)[C@H](Cc2ccc(C(=O)O)cc2)NC(=O)[C@H](CCCCN)NC(=O)CNC(=O)[C@H](C(C)C)NC1=O` [compound 294, DOTA-PEG8-hLeu-Y-C-V-G-K-4COOHPhe-D-V-Y-C-5FW-F-Pro-CONH2] ({DOTA-PEG8}-[hLeu]YCVGK[Phe(4-COOH)]DVYC[Trp(5-F)]FP-NH2; disulfide 3-11), the “% cell associated fraction” value with Calu-6 cell line [1] is recorded as “A (%≤25)”. The “% net internalization” value in the test on Calu-6 cell line [2] is given as “A (%≤25)”. This molecule displayed a Kd on human 4lg B7-H3 (setting [3]) of 1 to 10 nM.
With `CC(=O)N[C@@H](CCC(C)C)C(=O)N[C@@H](Cc1ccc(O)cc1)C(=O)N[C@H]1CSSC[C@@H](C(=O)N[C@@H](Cc2c[nH]c3ccc(F)cc23)C(=O)N[C@@H](Cc2ccccc2)C(=O)N2CCC[C@H]2C(=O)N[C@H](CCCCNC(=O)CN2CCN(CC(=O)O)CCN(CC(=O)O)CCN(CC(=O)O)CC2)C(N)=O)NC(=O)[C@H](Cc2ccc(O)cc2)NC(=O)[C@H](C(C)C)NC(=O)[C@H](CC(=O)O)NC(=O)[C@H](Cc2ccc(O)cc2)NC(=O)[C@H](CCCCN)NC(=O)CNC(=O)[C@H](C(C)C)NC1=O` [compound 160, Ac-hLeu-Y-C-V-G-K-Y-D-V-Y-C-5FW-F-Pro-dLys(DOTA)-CONH2] (Ac-[hLeu]YCVGKYDVYC[Trp(5-F)]FP[dK](DOTA)-NH2; disulfide 3-11), in the test with Calu-6 cell line [1], the “% cell associated fraction” value was “B (25<%≤50)”. For the same molecule, the “% net internalization” value in the test with Calu-6 cell line [2] is recorded as “A (%≤25)”. The Kd at human 4lg B7-H3 (setting [4]) is less than 1 nM.
On to `CC[C@H](C)[C@@H]1NC(=O)[C@@H](NC(=O)[C@H](Cc2ccc(O)cc2)NC(=O)[C@H](CCC(C)C)NC(C)=O)CSSC[C@@H](C(=O)N[C@@H](Cc2c[nH]c3ccc(F)cc23)C(=O)N[C@@H](Cc2ccccc2)C(=O)N[C@H](C(N)=O)C(C)(C)O)NC(=O)[C@H](Cc2ccc(O)cc2)NC(=O)[C@H](C(C)C)NC(=O)[C@H](CC(=O)O)NC(=O)[C@H](Cc2ccncc2)NC(=O)[C@H](CCCCNC(=O)CN2CCN(CC(=O)O)CCN(CC(=O)O)CCN(CC(=O)O)CC2)NC(=O)CNC1=O` [compound 230, Ac-hLeu-Y-C-Ile-G-Lys(DOTA)-4PyA-D-V-Y-C-5FW-F-hydroxyVal-CONH2] (Ac-[hLeu]YCIGK(DOTA)[4Pal]DVYC[Trp(5-F)]F[Val(3-OH)]-NH2; disulfide 3-11), for which the “% cell associated fraction” value with Calu-6 cell line [1] is given as “B (25<%≤50)”. The “% net internalization” value with Calu-6 cell line [2] is “A (%≤25)”. At human 4lg B7-H3 (setting [3]), this molecule gave a Kd of less than 1 nM.
As to `CC(=O)N[C@@H](CCC(C)C)C(=O)N[C@@H](Cc1ccc(O)cc1)C(=O)N[C@H]1CSSC[C@@H](C(=O)N[C@@H](Cc2c[nH]c3ccc(F)cc23)C(=O)N[C@@H](Cc2ccccc2)C(=O)N[C@H](C(N)=O)C(C)(C)O)NC(=O)[C@H](Cc2ccc(O)cc2)NC(=O)[C@H](C(C)C)NC(=O)[C@H](CC(=O)O)NC(=O)[C@H](CC2CCOCC2)NC(=O)[C@H](CCCCNC(=O)CN2CCN(CC(=O)O)CCN(CC(=O)O)CCN(CC(=O)O)CC2)NC(=O)CNC(=O)[C@H](C(C)(C)C)NC1=O` [compound 338, Ac-hLeu-Y-C-Tbg-G-Lys(DOTA)-ThpA-D-V-Y-C-5FW-F-hydroxyVal-CONH2] (Ac-[hLeu]YC[Tle]GK(DOTA)[Ala(4-THP)]DVYC[Trp(5-F)]F[Val(3-OH)]-NH2; disulfide 3-11), the “% cell associated fraction” value with Calu-6 cell line [1] is “B (25<%≤50)”. Moreover, in the test with Calu-6 cell line [2], the “% net internalization” value is on record as “A (%≤25)”. Further, at human 4lg B7-H3 (read-out: SPR KD—37° C., 37° C. flow cell temperature), the equilibrium dissociation constant (Kd) was 1 to 10 nM.
For the molecule `CC(=O)N[C@@H](CCC(C)C)C(=O)N[C@@H](Cc1ccc(O)cc1)C(=O)N[C@H]1CSSC[C@@H](C(=O)N[C@@H](Cc2cccc3ccccc23)C(=O)N[C@@H](Cc2ccccc2)C(=O)N2CCC[C@H]2C(N)=O)NC(=O)[C@H](Cc2ccc(O)cc2)NC(=O)[C@H](C(C)C)NC(=O)[C@H](CC(=O)O)NC(=O)[C@H](Cc2ccncc2)NC(=O)[C@H](CCCCNC(=O)CC[C@H](NC(=O)CC[C@H](NC(=O)CN2CCN(CC(=O)O)CCN(CC(=O)O)CCN(CC(=O)O)CC2)C(=O)O)C(=O)O)NC(=O)CNC(=O)[C@H](C(C)(C)C)NC1=O` [compound 253, Ac-hLeu-Y-C-Tbg-G-Lys(gE-gE-DOTA)-4PyA-D-V-Y-C-1Nal-F-Pro-CONH2] (Ac-[hLeu]YC[Tle]GK([γGlu-γGlu-DOTA])[4Pal]DVYC[1Nal]FP-NH2; disulfide 3-11), in the test with Calu-6 cell line [1], the “% cell associated fraction” value is “A (%≤25)”. Also, the “% net internalization” value with Calu-6 cell line [2] is recorded as “A (%≤25)”. For the same molecule, the dissociation constant Kd on human 4lg B7-H3 (setting [3]) was in the range of 1 to 10 nM.
Consider `CC[C@H](C)[C@@H]1NC(=O)[C@@H](NC(=O)[C@H](Cc2ccc(O)cc2)NC(=O)[C@H](CCC(C)C)NC(C)=O)CSSC[C@@H](C(=O)N[C@@H](Cc2c[nH]c3ccc(F)cc23)C(=O)N[C@@H](Cc2ccccc2)C(=O)N[C@H](C(N)=O)C(C)(C)O)NC(=O)[C@H](Cc2ccc(O)cc2)NC(=O)[C@H](C(C)C)NC(=O)[C@H](CC(=O)O)NC(=O)[C@H](CC2CCNCC2)NC(=O)[C@H](CCCCNC(=O)CN2CCN(CC(=O)O)CCN(CC(=O)O)CCN(CC(=O)O)CC2)NC(=O)CNC1=O` [compound 203, Ac-hLeu-Y-C-Ile-G-Lys(DOTA)-PipAla-D-V-Y-C-5FW-F-hydroxyVal-CONH2] (Ac-[hLeu]YCIGK(DOTA)[Ala(piperidin-4-yl)]DVYC[Trp(5-F)]F[Val(3-OH)]-NH2; disulfide 3-11), for which, in the test on Calu-6 cell line [1], the “% cell associated fraction” value is “B (25<%≤50)”. Also, the “% net internalization” value with Calu-6 cell line [2] is listed as “A (%≤25)”. Moreover, at human 4lg B7-H3 (setting [3]), the dissociation constant (Kd) is less than 1 nM.
As to `CC(=O)N[C@@H](CCC(C)C)C(=O)N[C@@H](Cc1ccc(O)cc1)C(=O)N[C@H]1CSSC[C@@H](C(=O)N[C@@H](Cc2cccc3ccccc23)C(=O)N[C@@H](Cc2ccccc2)C(=O)N[C@H](C(=O)N[C@H](CCCCNC(=O)CN2CCN(CC(=O)O)CCN(CC(=O)O)CCN(CC(=O)O)CC2)C(N)=O)[C@@H](C)O)NC(=O)[C@H](Cc2ccc(O)cc2)NC(=O)[C@H](C(C)C)NC(=O)[C@H](CC(=O)O)NC(=O)[C@H](Cc2ccc(O)cc2)NC(=O)[C@H](CCCCN)NC(=O)CNC(=O)[C@H](C(C)(C)C)NC1=O` [compound 179, Ac-hLeu-Y-C-Tbg-G-K-Y-D-V-Y-C-1Nal-F-Thr-dLys(DOTA)-CONH2] (Ac-[hLeu]YC[Tle]GKYDVYC[1Nal]FT[dK](DOTA)-NH2; disulfide 3-11), in the test with Calu-6 cell line [1], the “% cell associated fraction” value is on record as “B (25<%≤50)”. In addition, in the test with Calu-6 cell line [2], the “% net internalization” value is “A (%≤25)”. In addition, at human 4lg B7-H3 (setting [4]), the Kd was less than 1 nM.
